How the values were obtained:
[1] = molecular target: T1, human recombinant caspase-2 (Homo sapiens, UniProt P42575); conditions: disclosed in WO 2005/105829; cited from earlier work
T1 construct: purchased BIOMOL, Plymouth, Pa., USA
T1 sequence (P42575 170-325 limits assumed): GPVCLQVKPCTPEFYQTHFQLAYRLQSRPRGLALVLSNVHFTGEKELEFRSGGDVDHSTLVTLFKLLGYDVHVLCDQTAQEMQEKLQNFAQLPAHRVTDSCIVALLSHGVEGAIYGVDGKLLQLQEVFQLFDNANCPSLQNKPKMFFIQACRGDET
T1 sequence (P42575 348-452 limits assumed): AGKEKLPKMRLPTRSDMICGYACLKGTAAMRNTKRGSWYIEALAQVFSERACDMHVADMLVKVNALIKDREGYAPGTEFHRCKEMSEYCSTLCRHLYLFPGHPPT

[2] = molecular target: T1, human recombinant caspase-2; assay: in vitro caspase-2 inhibition activity (Ac-VDVAD-AMC fluorogenic substrate cleavage); type: biochemical; conditions: for IC50: 30 minutes pre-incubation with inhibitors 0.001 to 2 μM, 200 μM Ac-VDVAD-AMC, read after 2 hours at 37° C., mean of three independent runs, read-out: IC50 (concentration which inhibits 50% of caspase activity); for caspase-2 inhibition activity (in words), comparative compounds: compounds used for comparative purposes, structurally related to TRP601
Description: The in vitro caspase-2 inhibition activity of 2-quinolinylcarbonyl-(S)-Valinyl-(S)-Aspartyl (methyl ester)-(S)-Valinyl-(S)-Alanyl-(R,S)-Aspartyl (methyl ester) 2,3,5,6-tetrafluorophenyl ester (TRP 701) in comparison to other compounds was evaluated according to the following protocol. Samples of human recombinant caspase-2 (25-50U, BIOMOL, Plymouth, Pa., USA) were pre-incubated for 30 minutes with inhibitors (0.001 to 2 μM) in final 100 μl final assay buffer (50 mM HEPES, pH 7.4, 100 mM NaCI, 0.1% CHAPS, 10 mM DTT, 1 mM EDTA, 10% glycerol) and then mixed with 200 μM of the fluorogenic caspase substrates (BIOMOL) Ac-VDVAD-AMC. An IC50 value corresponding to the concentration which inhibis 50% of caspase activity was determined from the dose-response sigmoid curve using the steady-state fluorescence approach. The cleavage of AMC-based substrate by human recombinant caspase-2 was measured after 2 hours at 37° C. on a fluorescence microplate reader by monitoring emission at 510 nm upon excitation at 405 nm.
Curves are the mean of three independent runs.

Compound	caspase-2 selectivity (in words), background statement [1]	IC50 [2] [nM]	caspase-2 inhibition activity (in words), comparative compounds [2]	caspase-2 selectivity (in words) [2]
COC(=O)CC(NC(=O)[C@H](C)NC(=O)[C@@H](NC(=O)[C@H](CC(=O)OC)NC(=O)[C@@H](NC(=O)c1ccc2ccccc2n1)C(C)C)C(C)C)C(=O)COc1c(F)cccc1F (mixture of isomers) [TRP 601, 5-(2,6-difluoro-phenoxy)-3(R,S)-{2(S)-[2(S)-(3-methoxycarbonyl-2(S)-{3-methyl-2(S)-[(quinoline-2-carbonyl)-amino]butyrylamino}-propionylamino)-3-methyl-butyrylamino]-propionylamino}-4-oxo-pentanoic acid methyl ester]	selective caspase-2 inhibitor	60 to 90		
quinoline-2-carbonyl-(S)-Val-(S)-Asp(OMe)-(S)-Val-(S)-Ala-(R,S)-Ala((R,S)-CH2OC6H3(2,6-F2)) [TRP 600]			inactive	
COC(=O)CC(NC(=O)[C@H](C)NC(=O)[C@@H](NC(=O)[C@H](CC(=O)OC)NC(=O)[C@@H](NC(=O)c1ccc2ccccc2n1)C(C)C)C(C)C)C(=O)COc1c(F)c(F)cc(F)c1F (mixture of isomers) [TRP 701, 5-(2,3,5,6-tetrafluoro-phenoxy)-3(R,S)-{2(S)-[2(S)-(3-methoxycarbonyl-2(S)-{3-methyl-2(S)-[(quinoline-2-carbonyl)-amino]-butyrylamino}-propionylamino)-3-methyl-butyrylamino]-propionylamino}-4-oxo-pentanoic acid methyl ester]		60 to 90		selective caspase-2 inhibitor
CC(C)[C@H](NC(=O)c1ccc2ccccc2n1)C(=O)O [M3, 2-quinolinylcarbonyl-S-Valine]			inactive	

Source: US20120196892A1, “NOVEL CASPASE-2 INHIBITORS” (CHIESI FARMACEUTICI S.p.A., priority 2011, published 2012)
